Experimental data as given in patent publication US20240417369A1, “RXFP1 AGONISTS” (BRISTOL-MYERS SQUIBB COMPANY, priority 2021, published 2024).

Assays:
human RXFP1 = biological target: T1, human RXFP1 (Homo sapiens, UniProt Q9HBX9); assay: cAMP hRXFP1 HEK293 Assay; assay type: cell-based; settings: HEK293 cells stably expressing human RXFP1; 30 min at room temperature; HTRF cAMP
T1 construct: expressed in transfected cells
T1 sequence (Q9HBX9 1-757): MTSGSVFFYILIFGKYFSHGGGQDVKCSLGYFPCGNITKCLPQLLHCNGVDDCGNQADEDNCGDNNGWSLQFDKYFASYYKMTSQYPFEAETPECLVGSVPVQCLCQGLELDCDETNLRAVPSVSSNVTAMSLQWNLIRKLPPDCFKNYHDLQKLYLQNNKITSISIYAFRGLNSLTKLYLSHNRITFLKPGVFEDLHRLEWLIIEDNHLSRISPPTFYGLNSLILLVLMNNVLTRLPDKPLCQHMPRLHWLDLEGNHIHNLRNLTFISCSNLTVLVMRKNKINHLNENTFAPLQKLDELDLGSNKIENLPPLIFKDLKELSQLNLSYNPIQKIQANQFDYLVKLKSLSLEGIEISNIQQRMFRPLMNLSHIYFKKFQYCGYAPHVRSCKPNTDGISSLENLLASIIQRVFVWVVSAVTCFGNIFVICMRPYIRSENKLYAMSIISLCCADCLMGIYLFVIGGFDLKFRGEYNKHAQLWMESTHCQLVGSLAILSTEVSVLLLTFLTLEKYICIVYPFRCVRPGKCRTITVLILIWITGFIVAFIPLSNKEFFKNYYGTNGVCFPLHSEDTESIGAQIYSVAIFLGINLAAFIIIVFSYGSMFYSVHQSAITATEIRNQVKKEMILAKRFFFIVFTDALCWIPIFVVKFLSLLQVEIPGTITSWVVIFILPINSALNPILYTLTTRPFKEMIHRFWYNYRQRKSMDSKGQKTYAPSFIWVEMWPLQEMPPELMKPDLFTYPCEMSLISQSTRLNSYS
Procedure: RXFP1 Cyclic Adenosine Monophosphate (cAMP) Assays. Human embryonic kidney cells 293 (HEK293) cells and HEK293 cells stably expressing human RXFP1, were cultured in MEM medium supplemented with 10% qualified FBS, and 300 μg/ml hygromycin (Life Technologies). Cells were dissociated and suspended in assay buffer. The assay buffer was HBSS buffer (with calcium and magnesium) containing 20 mM HEPES. 0.05% BSA, and 0.5 mM IBMX. Cells (3000 cells per well, except 1500 cell per well for HEK293 cells stably expressing human RXFP1) were added to 384-well Proxiplates (Perkin-Elmer). Cells were immediately treated with test compounds in DMSO (2% final) at final concentrations in the range of 0.010 nM to 50 μM. Cells were incubated for 30 min at room temperature. The level of intracellular cAMP was determined using the HTRF HiRange cAMP assay reagent kit (Cisbio) according to manufacturer's instructions. Solutions of cryptate conjugated anti-cAMP and d2 fluorophore-labelled cAMP were made in a supplied lysis buffer separately. Upon completion of the reaction, the cells were lysed with equal volume of the d2-cAMP solution and anti-cAMP solution. After a 1 h room temperature incubation, time-resolved fluorescence intensity was measured using the Envision (Perkin-Elmer) at 400 nm excitation and dual emission at 590 nm and 665 nm. A calibration curve was constructed with an external cAMP standard at concentrations ranging from 2.7 μM to 0.1 μM by plotting the fluorescent intensity ratio from 665 nm emission to the intensity from the 590 nm emission against cAMP concentrations. The potency and activity of a compound to inhibit cAMP production was then determined by fitting to a 4-parametric logistic equation from a plot of cAMP level versus compound concentrations.
The examples disclosed below were tested in the human RXFP1 (hRXFP1) HEK293 cAMP assay described above and found to have agonist activity. Table I lists EC50 values in the hRXFP1 HEK293 cAMP assay measured for the examples.

[1] = intravenous (IV) formulation; cited from earlier work

Compound	EC50 (human RXFP1) [µM]	first-phase pharmacokinetic half-life [1] [min]
COc1ccc(Cl)cc1NC(=O)N[C@H]1[C@@H](C(=O)Nc2ccc(F)c(C(F)(F)F)c2)[C@H]2CC[C@@H]1/C2=C\C(F)(F)F [Example 4, (1R,2S,3R,4R,Z)-3-(3-(5-chloro-2-methoxyphenyl)ureido)-N-(4-fluoro-3-(trifluoromethyl)phenyl)-7-(2,2,2-trifluoroethylidene)bicyclo[2.2.1]heptane-2-carboxamide]	3.8	
O=C(N[C@@H]1C2CCC(/C2=C/C2CC2)[C@@H]1C(=O)Nc1ccc(F)c(C(F)(F)F)c1)C1CCC[C@H](C2=NOC3COCC23)C1 (single isomer, unassigned) [Example 15]	1.4	
Serelaxin		5.4
CO[C@H](C(=O)N[C@H]1[C@@H](C(=O)Nc2ccc(F)c(C(F)(F)F)c2)[C@H]2CC[C@@H]1/C2=C\C(F)(F)F)c1ccccc1 [Example 6, (1R,2S,3R,4R,Z)-N-(4-fluoro-3-(trifluoromethyl)phenyl)-3-((S)-2-methoxy-2-phenylacetamido)-7-(2,2,2-trifluoroethylidene)bicyclo [2.2.1]heptane-2-carboxamide]	3.3	
O=C(N[C@H]1[C@@H](C(=O)Nc2ccc(F)c(C(F)(F)F)c2)[C@H]2CC[C@@H]1/C2=C\C1CC1)C1CCC[C@@H](C2=NOC3COCC23)C1 (single isomer, unassigned) [Example 17]	1.6	
O=C(N[C@H]1[C@@H](C(=O)Nc2ccc(F)c(C(F)(F)F)c2)[C@H]2CC[C@@H]1/C2=C\C(F)(F)F)C(O)c1cccc(Oc2ccccc2)c1 (stereo partly drawn) [Example 7, (1R,2S,3R,4R,Z)-N-(4-fluoro-3-(trifluoromethyl)phenyl)-3-(2-hydroxy-2-(3-phenoxyphenyl)acetamido)-7-(2,2,2-trifluoroethylidene)bicyclo [2.2.1]heptane-2-carboxamide]	3.4	
O=C(O)c1cccc(C2CCC(C(=O)N[C@H]3[C@@H](C(=O)Nc4ccc(F)c(C(F)(F)F)c4)[C@H]4CC[C@@H]3/C4=C\C(F)(F)F)CC2)c1 (some centres unmarked) [Example 11]	4.3	
O=C(N[C@H]1[C@@H](C(=O)Nc2ccc(F)c(C(F)(F)F)c2)[C@H]2CC[C@@H]1/C2=C\C1CC1)C1CCC[C@@H](C2=NOC3COCC23)C1 (single isomer, unassigned) [Example 19]	2	
O=C(N[C@@H]1C2CCC(/C2=C/C2CC2)[C@@H]1C(=O)Nc1ccc(F)c(C(F)(F)F)c1)C1CCC[C@H](C2=NOC3COCC23)C1 (single isomer, unassigned) [Example 13]	2.9	
O=C(O)CCCCCCC(=O)N[C@H]1[C@@H](C(=O)Nc2ccc(F)c(C(F)(F)F)c2)[C@H]2CC[C@@H]1/C2=C\C1CC1 [Example 8, 8-(((1R,2R,3S,4R,Z)-7-(cyclopropylmethylene)-3-((4-fluoro-3-(trifluoromethyl)phenyl)carbamoyl)bicyclo[2.2.1]heptan-2-yl)amino)-8-oxooctanoic acid]	4.7	
O=C(O)c1cccc(C2CCC(C(=O)NC3C4CCC(C4=CC(F)(F)F)C3C(=O)Nc3ccc(F)c(C(F)(F)F)c3)C2)c1 (single isomer, unassigned) [Example 10]	2	
O=C(N[C@@H]1C2CCC(/C2=C/C2CC2)[C@@H]1C(=O)Nc1ccc(F)c(C(F)(F)F)c1)C1CCC[C@H](C2=NOC3COCC23)C1 (single isomer, unassigned) [Example 14]	1.6	

More lines, in order of falling EC50 (human RXFP1), values ahead:

EC50 (human RXFP1) [µM]	Compound	first-phase pharmacokinetic half-life [1] [min]
1.2	O=C(CCCCCCCO)N[C@@H]1C2CCC(/C2=C/C2CC2)C1C(=O)Nc1ccc(F)c(C(F)(F)F)c1 (stereo in doubt) [Example 5, (1R,2R,3R,4R,Z)-7-(cyclopropylmethylene)-N-(4-fluoro-3-(trifluoromethyl)phenyl)-3-(8-hydroxyoctanamido)bicyclo [2.2.1]heptane-2-carboxamide]	
1	O=C(N[C@H]1[C@@H](C(=O)Nc2ccc(F)c(C(F)(F)F)c2)[C@H]2CC[C@@H]1/C2=C\C1CC1)C1CCC[C@@H](C2=NOC3COCC23)C1 (single isomer, unassigned) [Example 18]	
1	O=C(N[C@H]1[C@@H](C(=O)Nc2ccc(F)c(C(F)(F)F)c2)[C@H]2CC[C@@H]1/C2=C\C1CC1)C1CCC[C@@H](C2=NOC3COCC23)C1 (stereo partly drawn) [Example 16, (1R,2S,3R,4R,7Z)-3-[(3R)-3-{3aH,4H,6H,6aH-furo[3,4-d][1,2]oxazol-3-yl}cyclohexaneamido]-7-(cyclopropylmethylidene)-N-[4-fluoro-3-(trifluoromethyl)phenyl]bicyclo [2.2.1]heptane-2-carboxamide]	
0.93	O=C(O)c1cccc(C2CCCC(C(=O)N[C@H]3[C@@H](C(=O)Nc4ccc(F)c(C(F)(F)F)c4)[C@H]4CC[C@@H]3/C4=C\C(F)(F)F)C2)c1 (single isomer, unassigned) [Example 1]	
0.51	O=C(O)c1cccc(C2CCCC(C(=O)N[C@H]3[C@@H](C(=O)Nc4ccc(F)c(C(F)(F)F)c4)[C@H]4CC[C@@H]3/C4=C\C(F)(F)F)C2)c1 (single isomer, unassigned) [Example 3]	
0.51	O=C(O)c1cccc(C2CCC(C(=O)N[C@H]3[C@@H](C(=O)Nc4ccc(F)c(C(F)(F)F)c4)[C@H]4CC[C@@H]3/C4=C\C(F)(F)F)C2)c1 (single isomer, unassigned) [Example 9]	
0.35	O=C(NC1C2CCC(/C2=C/C2CC2)[C@@H]1C(=O)Nc1ccc(F)c(C(F)(F)F)c1)C1CCC[C@H](C2=NOC3COCC23)C1 (single isomer, unassigned) [Example 12]	
0.3	O=C(O)c1cccc(C2CCCC(C(=O)N[C@H]3[C@@H](C(=O)Nc4ccc(F)c(C(F)(F)F)c4)[C@H]4CC[C@@H]3/C4=C\C(F)(F)F)C2)c1 (single isomer, unassigned) [Example 2]	
